Reference: ChEMBL document CHEMBL4390652, “Design, biological evaluation and X-ray crystallography of nanomolar multifunctional ligands targeting simultaneously acetylcholinesterase and glycogen synthase kinase-3” (Eur J Med Chem, 2019)
pIC50: −log10 of the molar value.

What was measured:
Acetylcholinesterase = Acetylcholinesterase (Homo sapiens, UniProt P22303); test: Inhibition of human recombinant AChE using ATCh as substrate preincubated for 20 mins followed by substrate addition and measured for 3 mins by Ellman method
[1] = target: Cyclin-dependent kinase 5/CDK5 activator 1 (Homo sapiens, UniProt Q00535); assay type: protein-complex assay
Description: Inhibition of human recombinant CDK5/p25 using histone H1 as substrate in presence of [gamma-33P]ATP incubated for 30 mins by liquid scintillation counting assay

[2] = target: Activin receptor type-2A (Homo sapiens) (UniProt P27037); test: Binding affinity to wild-type human ACVR2A (V171 to T499 residues) expressed in bacterial expression system assessed as residual binding level at 10 uM by Kinomescan method relative to control
[3] = target: BMP-2-inducible protein kinase (Homo sapiens) (UniProt Q9NSY1); test: Binding affinity to wild-type human partial length BIKE (S34 to N329 residues) expressed in bacterial expression system assessed as residual binding level at 10 uM by Kinomescan method relative to control
[4] = target: Bone morphogenetic protein receptor type-1B (Homo sapiens) (UniProt O00238); test: Binding affinity to wild-type human partial length BMPR1B (D178 to L502 residues) expressed in mammalian expression system assessed as residual binding level at 10 uM by Kinomescan method relative to control
[5] = target: Calcium/calmodulin-dependent protein kinase type 1D (Homo sapiens) (UniProt Q8IU85); test: Binding affinity to wild-type human partial length CAMK1D (M1 to K299 residues) expressed in bacterial expression system assessed as residual binding level at 10 uM by Kinomescan method relative to control
[6] = target: Calcium/calmodulin-dependent protein kinase type IV (Homo sapiens) (UniProt Q16566); test: Binding affinity to wild-type human partial length CAMK4 (A22 to A322 residues) expressed in bacterial expression system assessed as residual binding level at 10 uM by Kinomescan method relative to control
[7] = target: Serine/threonine-protein kinase Chk1 (Homo sapiens) (UniProt O14757); test: Binding affinity to wild-type human partial length CHEK1 (M1 to G289 residues) expressed in bacterial expression system assessed as residual binding level at 10 uM by Kinomescan method relative to control
[8] = target: Dual specificity tyrosine-phosphorylation-regulated kinase 1B (Homo sapiens) (UniProt Q9Y463); test: Binding affinity to wild-type human full length DYRK1B (M1 to S629 residues) expressed in bacterial expression system assessed as residual binding level at 10 uM by Kinomescan method relative to control
[9] = test system: Epidermal growth factor receptor (Homo sapiens), P00533 [UNDEFINED MUTATION]; test: Binding affinity to human partial length EGFR L747-S752del/P753S mutant expressed in bacterial expression system assessed as residual binding level at 10 uM by Kinomescan method relative to control
[10] = target: Ephrin type-A receptor 5 (Homo sapiens) (UniProt P54756); test: Binding affinity to wild-type human partial length EPHA5 (T627 to V930 residues) expressed in bacterial expression system assessed as residual binding level at 10 uM by Kinomescan method relative to control
[11] = test system: Receptor-type tyrosine-protein kinase FLT3 (Homo sapiens), P36888 [D835V]; test: Binding affinity to human partial length FLT3 D835V mutant (V592 to Y969 residues) expressed in bacterial expression system assessed as residual binding level at 10 uM by Kinomescan method relative to control
[12] = target: Tyrosine-protein kinase FRK (Homo sapiens) (UniProt P42685); test: Binding affinity to wild-type human partial length FRK (A215 to F503 residues) expressed in bacterial expression system assessed as residual binding level at 10 uM by Kinomescan method relative to control
[13] = target: Cyclin-G-associated kinase (Homo sapiens) (UniProt O14976); test: Binding affinity to wild-type human partial length GAK (G13 to Y338 residues) expressed in bacterial expression system assessed as residual binding level at 10 uM by Kinomescan method relative to control
[14] = target: Serine/threonine-protein kinase ICK (Homo sapiens) (UniProt Q9UPZ9); test: Binding affinity to wild-type human partial length ICK (M1 to P314 residues) expressed in mammalian expression system assessed as residual binding level at 10 uM by Kinomescan method relative to control
[15] = target: Interleukin-1 receptor-associated kinase 1 (Homo sapiens) (UniProt P51617); test: Binding affinity to wild-type human partial length IRAK1 (R194 to S712 residues) expressed in mammalian expression system assessed as residual binding level at 10 uM by Kinomescan method relative to control
[16] = target: Interleukin-1 receptor-associated kinase 4 (Homo sapiens) (UniProt Q9NWZ3); test: Binding affinity to wild-type human partial length IRAK4 (M1 to S460 residues) expressed in mammalian expression system assessed as residual binding level at 10 uM by Kinomescan method relative to control
[17] = target: Tyrosine-protein kinase JAK1 (Homo sapiens) (UniProt P23458); test: Binding affinity to wild-type human partial length JAK1 JH2 pseudokinase domain (R537 to D855 residues) expressed in mammalian expression system assessed as residual binding level at 10 uM by Kinomescan method relative to control
[18] = target: Serine/threonine-protein kinase LATS2 (Homo sapiens) (UniProt Q9NRM7); test: Binding affinity to wild-type human partial length LATS2 (Q641 to V1088 residues) expressed in mammalian expression system assessed as residual binding level at 10 uM by Kinomescan method relative to control
[19] = target: Mitogen-activated protein kinase kinase kinase 1 (Homo sapiens) (UniProt Q13233); test: Binding affinity to wild-type human partial length MAP3K1 (L1202 to W1512 residues) expressed in mammalian expression system assessed as residual binding level at 10 uM by Kinomescan method relative to control
[20] = target: Misshapen-like kinase 1 (Homo sapiens) (UniProt Q8N4C8); test: Binding affinity to wild-type human partial length MINK (M1 to K312 residues) expressed in mammalian expression system assessed as residual binding level at 10 uM by Kinomescan method relative to control
[21] = test system: Proto-oncogene tyrosine-protein kinase receptor Ret (Homo sapiens), P07949 [M918T]; test: Binding affinity to human partial length RET M918T mutant (E713 to D1014 residues) expressed in bacterial expression system assessed as residual binding level at 10 uM by Kinomescan method relative to control
[22] = target: Ribosomal protein S6 kinase alpha-6 (Homo sapiens) (UniProt Q9UK32); test: Binding affinity to wild-type human partial length N-terminal RSK4 kinase domain 1 (M1 to E397 residues) expressed in mammalian expression system assessed as residual binding level at 10 uM by Kinomescan method relative to control
[23] = target: Serine/threonine-protein kinase Sgk3 (Homo sapiens) (UniProt Q96BR1); test: Binding affinity to wild-type human partial length SGK3 (M119 to L496 residues) expressed in mammalian expression system assessed as residual binding level at 10 uM by Kinomescan method relative to control
[24] = target: Vascular endothelial growth factor receptor 2 (Homo sapiens) (UniProt P35968); test: Binding affinity to wild-type human partial length VEGFR2 (R787 to P1253 residues) expressed in mammalian expression system assessed as residual binding level at 10 uM by Kinomescan method relative to control

Interleukin-1 receptor-associated kinase 4 (Homo sapiens), sequence (Q9NWZ3 whole entry, the tested form may be a part): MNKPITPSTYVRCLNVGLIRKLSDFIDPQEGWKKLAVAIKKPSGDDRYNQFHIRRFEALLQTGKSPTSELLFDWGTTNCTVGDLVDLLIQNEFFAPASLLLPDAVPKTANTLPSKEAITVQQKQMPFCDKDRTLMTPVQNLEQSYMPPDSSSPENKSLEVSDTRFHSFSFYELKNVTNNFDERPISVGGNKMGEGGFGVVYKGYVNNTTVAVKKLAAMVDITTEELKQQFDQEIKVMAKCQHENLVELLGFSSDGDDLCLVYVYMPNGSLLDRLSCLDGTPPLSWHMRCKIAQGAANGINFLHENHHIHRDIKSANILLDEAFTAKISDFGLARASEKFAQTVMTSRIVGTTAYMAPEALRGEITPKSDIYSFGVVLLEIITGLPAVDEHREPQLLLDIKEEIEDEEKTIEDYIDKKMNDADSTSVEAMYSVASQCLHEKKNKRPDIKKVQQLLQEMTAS
Tyrosine-protein kinase JAK1 (Homo sapiens), sequence (P23458 whole entry, the tested form may be a part): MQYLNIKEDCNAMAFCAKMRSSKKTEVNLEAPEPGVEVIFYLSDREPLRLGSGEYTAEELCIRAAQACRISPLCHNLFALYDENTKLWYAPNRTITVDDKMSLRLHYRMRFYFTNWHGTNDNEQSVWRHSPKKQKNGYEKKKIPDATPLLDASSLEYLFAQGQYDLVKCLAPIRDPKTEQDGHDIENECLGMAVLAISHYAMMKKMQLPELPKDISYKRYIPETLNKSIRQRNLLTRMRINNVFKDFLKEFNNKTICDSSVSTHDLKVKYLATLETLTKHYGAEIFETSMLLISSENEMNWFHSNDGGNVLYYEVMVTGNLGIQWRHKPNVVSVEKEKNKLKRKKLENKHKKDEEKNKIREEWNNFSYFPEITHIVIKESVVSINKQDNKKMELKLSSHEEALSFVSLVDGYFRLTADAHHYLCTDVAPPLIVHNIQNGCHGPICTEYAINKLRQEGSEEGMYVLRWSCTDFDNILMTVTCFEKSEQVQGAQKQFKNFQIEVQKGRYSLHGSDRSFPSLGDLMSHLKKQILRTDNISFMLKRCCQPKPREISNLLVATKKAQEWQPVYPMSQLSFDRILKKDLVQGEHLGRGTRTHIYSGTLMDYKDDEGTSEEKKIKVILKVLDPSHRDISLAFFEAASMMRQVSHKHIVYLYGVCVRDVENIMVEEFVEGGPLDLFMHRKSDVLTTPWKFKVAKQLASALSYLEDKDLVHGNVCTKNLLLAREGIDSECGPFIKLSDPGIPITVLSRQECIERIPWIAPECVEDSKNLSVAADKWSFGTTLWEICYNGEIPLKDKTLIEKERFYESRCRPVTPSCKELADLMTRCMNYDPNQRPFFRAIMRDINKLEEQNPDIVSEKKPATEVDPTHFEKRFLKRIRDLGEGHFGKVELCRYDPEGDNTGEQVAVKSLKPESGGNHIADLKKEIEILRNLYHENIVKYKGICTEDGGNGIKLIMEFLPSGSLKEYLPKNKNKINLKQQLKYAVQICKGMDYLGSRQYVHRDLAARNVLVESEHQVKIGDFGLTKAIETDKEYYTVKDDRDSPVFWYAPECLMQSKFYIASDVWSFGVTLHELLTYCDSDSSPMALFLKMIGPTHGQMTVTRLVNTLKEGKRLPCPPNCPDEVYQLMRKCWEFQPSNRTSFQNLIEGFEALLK
Acetylcholinesterase, sequence (P22303 whole entry): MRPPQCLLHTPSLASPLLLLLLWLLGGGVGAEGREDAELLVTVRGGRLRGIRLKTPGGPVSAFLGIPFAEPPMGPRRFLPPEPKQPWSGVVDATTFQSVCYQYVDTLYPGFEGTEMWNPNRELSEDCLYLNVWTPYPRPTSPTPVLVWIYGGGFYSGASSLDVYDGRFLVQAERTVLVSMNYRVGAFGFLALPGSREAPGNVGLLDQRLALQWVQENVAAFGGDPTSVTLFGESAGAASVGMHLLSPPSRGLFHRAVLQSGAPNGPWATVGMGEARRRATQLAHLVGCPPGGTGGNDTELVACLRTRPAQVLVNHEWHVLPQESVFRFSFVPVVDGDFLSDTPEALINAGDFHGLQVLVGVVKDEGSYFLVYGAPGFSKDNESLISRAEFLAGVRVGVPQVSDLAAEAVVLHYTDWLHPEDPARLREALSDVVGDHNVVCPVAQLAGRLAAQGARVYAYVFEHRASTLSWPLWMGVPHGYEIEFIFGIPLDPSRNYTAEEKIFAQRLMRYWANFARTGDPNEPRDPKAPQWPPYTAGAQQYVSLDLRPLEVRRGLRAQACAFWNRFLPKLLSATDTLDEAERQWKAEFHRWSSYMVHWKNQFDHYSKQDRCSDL
Epidermal growth factor receptor (Homo sapiens), P00533 [UNDEFINED MUTATION], sequence (P00533 whole entry, looked up, stated change not applied, the tested form may be a part): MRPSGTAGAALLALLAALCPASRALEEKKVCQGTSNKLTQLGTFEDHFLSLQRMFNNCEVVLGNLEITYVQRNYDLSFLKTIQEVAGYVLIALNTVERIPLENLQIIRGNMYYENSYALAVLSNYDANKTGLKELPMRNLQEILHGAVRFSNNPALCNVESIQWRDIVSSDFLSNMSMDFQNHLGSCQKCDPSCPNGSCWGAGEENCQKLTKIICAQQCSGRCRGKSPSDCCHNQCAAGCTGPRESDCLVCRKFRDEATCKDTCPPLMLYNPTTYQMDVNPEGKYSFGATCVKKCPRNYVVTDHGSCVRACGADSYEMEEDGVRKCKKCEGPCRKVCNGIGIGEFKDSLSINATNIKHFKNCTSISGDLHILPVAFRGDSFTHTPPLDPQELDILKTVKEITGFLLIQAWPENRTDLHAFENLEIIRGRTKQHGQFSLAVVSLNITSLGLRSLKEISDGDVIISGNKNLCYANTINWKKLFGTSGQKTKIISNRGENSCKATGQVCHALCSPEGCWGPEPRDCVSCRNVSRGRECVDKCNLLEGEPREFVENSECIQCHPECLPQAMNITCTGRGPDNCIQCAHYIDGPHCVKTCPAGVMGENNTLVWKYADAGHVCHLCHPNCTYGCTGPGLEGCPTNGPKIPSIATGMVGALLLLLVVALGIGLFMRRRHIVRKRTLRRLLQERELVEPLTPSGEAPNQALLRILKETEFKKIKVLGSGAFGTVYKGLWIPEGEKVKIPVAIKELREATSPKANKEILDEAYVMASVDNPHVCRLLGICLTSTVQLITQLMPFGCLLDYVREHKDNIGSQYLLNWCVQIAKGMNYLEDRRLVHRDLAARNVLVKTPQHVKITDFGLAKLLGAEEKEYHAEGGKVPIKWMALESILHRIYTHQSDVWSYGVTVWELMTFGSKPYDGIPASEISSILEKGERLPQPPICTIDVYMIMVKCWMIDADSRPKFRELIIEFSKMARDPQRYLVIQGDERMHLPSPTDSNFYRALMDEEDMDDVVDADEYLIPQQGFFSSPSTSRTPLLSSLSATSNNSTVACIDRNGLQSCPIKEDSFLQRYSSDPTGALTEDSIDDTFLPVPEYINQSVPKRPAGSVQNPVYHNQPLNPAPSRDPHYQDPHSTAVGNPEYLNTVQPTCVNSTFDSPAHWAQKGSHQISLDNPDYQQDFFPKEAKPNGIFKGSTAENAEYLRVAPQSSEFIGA
Serine/threonine-protein kinase Sgk3 (Homo sapiens), sequence (Q96BR1 whole entry, the tested form may be a part): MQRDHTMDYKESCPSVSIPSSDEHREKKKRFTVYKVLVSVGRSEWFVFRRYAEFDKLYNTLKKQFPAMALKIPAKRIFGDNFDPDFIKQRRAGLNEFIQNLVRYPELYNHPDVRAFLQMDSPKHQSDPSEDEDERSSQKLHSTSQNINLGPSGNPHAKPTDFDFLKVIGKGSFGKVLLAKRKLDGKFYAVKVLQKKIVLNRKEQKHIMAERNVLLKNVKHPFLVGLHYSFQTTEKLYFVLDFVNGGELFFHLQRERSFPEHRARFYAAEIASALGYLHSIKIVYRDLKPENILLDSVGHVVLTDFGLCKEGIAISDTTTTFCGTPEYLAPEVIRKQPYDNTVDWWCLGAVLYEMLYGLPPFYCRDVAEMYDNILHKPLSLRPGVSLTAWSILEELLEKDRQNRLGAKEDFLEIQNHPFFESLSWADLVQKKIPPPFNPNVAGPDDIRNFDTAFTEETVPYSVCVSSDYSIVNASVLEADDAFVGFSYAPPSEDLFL
Proto-oncogene tyrosine-protein kinase receptor Ret (Homo sapiens), P07949 [M918T], sequence (P07949 whole entry M918T, the tested form may be a part): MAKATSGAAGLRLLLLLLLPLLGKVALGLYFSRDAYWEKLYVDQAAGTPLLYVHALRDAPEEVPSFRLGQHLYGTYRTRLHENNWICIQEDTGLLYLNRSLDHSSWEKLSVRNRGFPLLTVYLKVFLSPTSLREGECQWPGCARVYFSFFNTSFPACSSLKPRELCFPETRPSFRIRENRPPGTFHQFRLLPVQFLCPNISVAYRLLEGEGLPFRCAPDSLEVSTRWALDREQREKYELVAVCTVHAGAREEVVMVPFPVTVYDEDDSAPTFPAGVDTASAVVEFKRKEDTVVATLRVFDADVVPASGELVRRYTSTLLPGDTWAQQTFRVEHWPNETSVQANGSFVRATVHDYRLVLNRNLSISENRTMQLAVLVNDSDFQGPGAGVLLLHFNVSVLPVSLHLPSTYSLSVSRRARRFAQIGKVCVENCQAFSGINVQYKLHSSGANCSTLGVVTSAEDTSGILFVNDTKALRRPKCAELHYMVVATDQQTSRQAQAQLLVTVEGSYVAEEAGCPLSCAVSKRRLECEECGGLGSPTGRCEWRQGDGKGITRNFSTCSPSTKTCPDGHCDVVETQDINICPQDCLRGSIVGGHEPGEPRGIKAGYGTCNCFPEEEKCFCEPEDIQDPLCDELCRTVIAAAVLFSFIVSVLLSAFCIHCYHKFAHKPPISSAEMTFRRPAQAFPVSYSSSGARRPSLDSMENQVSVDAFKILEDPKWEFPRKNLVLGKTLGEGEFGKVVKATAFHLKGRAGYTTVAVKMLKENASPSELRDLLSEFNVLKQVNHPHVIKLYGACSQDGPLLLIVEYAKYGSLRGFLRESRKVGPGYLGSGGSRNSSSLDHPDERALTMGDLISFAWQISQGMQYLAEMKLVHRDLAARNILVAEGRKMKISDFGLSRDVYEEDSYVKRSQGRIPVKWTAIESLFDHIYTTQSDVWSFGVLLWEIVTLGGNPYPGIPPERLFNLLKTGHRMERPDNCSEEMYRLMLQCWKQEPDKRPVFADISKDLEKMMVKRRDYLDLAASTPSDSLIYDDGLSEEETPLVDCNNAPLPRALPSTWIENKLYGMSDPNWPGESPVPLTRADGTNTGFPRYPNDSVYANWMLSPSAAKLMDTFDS

Q: With O=C(Nc1cc(-c2cn(CCNc3c4c(nc5ccccc35)CCCC4)nn2)ccn1)Nc1cccc2c1C1CCCCN1C2=O (racemic) as the compound, how does the pIC50 (Acetylcholinesterase) read?
A: The pIC50 was 7.94.

Q: What about the pIC50 [1] of the same compound?
A: Its pIC50 is 6.10.

Q: And the Activity [2]?
A: Its Activity is 100%.

Q: What about the Activity [3] of the same compound?
A: The Activity was 2.3%.

Q: What about the Activity [4] of the same compound?
A: The Activity was 25%.

Q: What about the Activity [5] of the same compound?
A: The Activity was 48%.

Q: And the Activity [6]?
A: Its Activity is 100%.

Q: And the Activity [7]?
A: Its Activity is 92%.

Q: What about the Activity [8] of the same compound?
A: The Activity was 3.7%.

Q: And the Activity [9]?
A: Its Activity is 80%.

Q: And the Activity [10]?
A: Its Activity is 81%.

Q: And the Activity [11]?
A: The Activity was 0.04%.

Q: And the Activity [12]?
A: The Activity was 99%.

Q: What about the Activity [13] of the same compound?
A: The Activity was 19%.

Q: What about the Activity [14] of the same compound?
A: Its Activity is 7.5%.

Q: And the Activity [15]?
A: The Activity was 8.7%.

Q: What about the Activity [16] of the same compound?
A: Its Activity is 93%.

Q: What about the Activity [17] of the same compound?
A: The Activity was 36%.

Q: And the Activity [18]?
A: Its Activity is 65%.

Q: What about the Activity [19] of the same compound?
A: The Activity was 100%.

Q: And the Activity [20]?
A: The Activity was 28%.

Q: What about the Activity [21] of the same compound?
A: Its Activity is 42%.

Q: What about the Activity [22] of the same compound?
A: The Activity was 2.2%.

Q: And the Activity [23]?
A: Its Activity is 1.3%.

Q: And the Activity [24]?
A: Its Activity is 9.1%.
